Assay: Average particle diameter of preparation (Zetasizer Nano ZS)
Assay type: physicochemical
Settings: Comparative Examples 1 to 8, prepared as Example 118 with apo-b siRNA
Excerpt: Preparations were produced using the compounds obtained in Examples 1 to 117, as follows.
APO-B siRNA was used as the nucleic acid. APO-B siRNA suppresses expression of an apolipoprotein-B (hereinafter, “apo-b”) gene and has a sense strand with the base sequence 5′-GmUCAmUCACACmUGAAmUACCAAmU-3′ (the sugars attached to the bases appended with m are 2′-O-methyl-substituted riboses), and an antisense strand with the base sequence 5′-[…]-3′ (the 5′-end is phosphorylated). The sense strand and the antisense strand were obtained from Nippon EGT, GeneDesign, Inc., Invitrogen or Hokkaido System Science Co., Ltd., and annealed to prepare the nucleic acid (hereinafter, “apo-b siRNA”).
A solution comprising the constituent components was prepared by dissolving each of the weighed samples in 90 vol % ethanol in 8.947/1.059/5.708/13.697 mmol/L [compounds 1 to 117 obtained in Examples 1 to 117/sodium 1,2-dimyristoyl-sn-glycero-3-phosphoethanolamine-N-(methoxy(polyethylene glycol)-2000) (PEG-DMPE Na,N-(carbonylmethoxypolyethylene glycol 2000)-1,2-dimyristoyl-sn-glycero-3-phosphoethanolamine sodium salt, NOF Corporation)/distearoylphosphatidyl choline (DSPC, 1,2-distearoyl-sn-glycero-3-phosphocholine, NOF Corporation)/cholesterol (Avanti Polar Lipids)]. Separately, apo-b siRNA/distilled water (24 mg/mL) was diluted with a Tris-EDTA buffer (200 mM Tris-HCl, 20 mM EDTA, Invitrogen) and a 20 mM citric acid buffer (pH 5.0) to prepare a 1.5 mg/mL apo-b siRNA aqueous solution (2 mM Tris-EDTA/20 mM citric acid buffer, pH 5.0).
The resulting lipid solution was heated to 37° C., and a 100-μL portion was transferred to a preparation container. The apo-b siRNA aqueous solution (100 μL) was then added thereto while being stirred. Then, a 20 mM citric acid buffer (containing 300 mM NaCl, pH 6.0; 200 μL) was added to the lipid nucleic acid mixed suspension (200 μL) while being stirred. The siRNA concentration was brought to 10 μM by dropping a Dulbecco phosphate buffer (DPBS, Invitrogen; 662 μL), and preparations (compositions comprising compounds 1 to 117 and the nucleic acid) were obtained.
The average particle diameter of the complex between the cationic lipis and the nucleic acid in each preparation was measured with a particle diameter measurement device (Malvern; Zetasizer Nano ZS).

With `CCCCC/C=C\C/C=C\CCCCCCCCOC1CN(Cc2ccccc2)C[C@H]1OCCCCCCCC/C=C\C/C=C\CCCCC` (stereo in doubt) [Compound VI-3, (3R,4R)-1-Benzyl-3,4-bis((9Z,12Z)-octadec-9,12-dienyloxy)pyrrolidine, reference compound] the “average particle diameter of the complex between the cationic lipis and the nucleic acid in the preparation” value was 167.8 nm.

Same assay, conditions: average particle diameter of cationic lipid/nucleic acid complex; Example 118 preparation: compound/PEG-DMPE Na/DSPC/cholesterol with apo-b siRNA

Point of comparison: `CCCCCCCCCCC/C=C\CCCCCO[C@@H]1CNC[C@H]1OCCCCC/C=C\CCCCCCCCCCC` [Compound 7, (3R,4R)-3,4-bis((Z)-Octadec-6-enyloxy)pyrrolidine], “Particle diameter of Preparetion” value 148.7 nm. Against it:
- CCCCC/C=C\C/C=C\CCCCCCCC(=O)OCCN(CCOC(=O)CCCCCCC/C=C\C/C=C\CCCCC)C(=O)CN [Compound 96, 2-Amino-N,N-bis(2-((9Z,12Z)-octadec-9,12-dienoyloxy)ethyl)acetamide] — lower, 133.2 nm
- CCCCCCCC/C=C\CCCCCCCCOCCN(CCOCCCCCCCC/C=C\CCCCCCCC)C(=O)[C@@H](N)CN [Compound 92, (S)-2,3-Diamino-N,N-bis(2-((Z)-octadec-9-enyloxy)ethyl)propanamido] — lower, 143.9 nm
- CCCCCCCC/C=C\CCCCCCCCO[C@@H]1CN(C)C[C@H]1OCCCCCCCC/C=C\CCCCCCCC [Compound 12, (3R,4R)-1-Methyl-3,4-bis((Z)-octadec-9-enyloxy)pyrrolidine] — higher, 161.3 nm
- CCCCCCCC/C=C\CCCCCCCC(=O)OCC[N+](C)(C)CCOC(=O)CCCCCCC/C=C\CCCCCCCC.[Cl-] [Compound 81, N,N-diMethyl-N,N-bis(2-((Z)-octadec-9-enoyloxy)ethyl)aminium chloride] — lower, 103.4 nm
- CCCCCCCC/C=C\CCCCCCCC(=O)OCCN(CCOC(=O)CCCCCCC/C=C\CCCCCCCC)C(=O)OCCCN(C)C [Compound 116, 3-(Dimethylamino)propyl bis(2-((Z)-1-oxooctadec-9-enyloxy)ethyl)carbamate] — higher, 154.1 nm
- CCCCC/C=C\C/C=C\CCCCCCCC(=O)OC[C@@H]1C[N+](C)(C)C[C@H]1COC(=O)CCCCCCC/C=C\C/C=C\CCCCC.[Cl-] (relative stereo) [Compound 114, trans-1,1-Dimethyl-3,4-bis(((9Z,12Z)-octadec-9,12-dienoyloxy)methyl)pyrrolidinium chloride] — lower, 108.2 nm
- CCCCCC/C=C\CCCCCCCCCCOCCN(C)CCOCCCCCCCCCC/C=C\CCCCCC [Compound 77, N-Methyl-N,N-bis(2-((Z)-octadec-11-enyloxy)ethyl)amine] — lower, 119.7 nm
- CCCCCCCC/C=C\CCCCCCCCOC[C@@H]1CN(C)C[C@H]1COCCCCCCCC/C=C\CCCCCCCC (relative stereo) [Compound 106, trans-1-Methyl-3,4-bis(((Z)-octadec-9-enyloxy)methyl)pyrrolidine] — lower, 139.2 nm
- CCCCCCCC/C=C\CCCCCCCC(=O)O[C@@H]1CNC[C@H]1OC(=O)CCCCCCC/C=C\CCCCCCCC [Compound 9, (3R,4R)-Pyrrolidine-3,4-diyl di((Z)-octadec-9-enoate)] — lower, 141.9 nm
- CCCCC/C=C\C/C=C\CCCCCCCC(=O)O[C@@H]1CN(C(=O)CCN(C)C)C[C@H]1OC(=O)CCCCCCC/C=C\C/C=C\CCCCC [Compound 29, (3R,4R)-1-(3-(dimethylamino)propanoyl)pyrrolidine-3,4-diyl di((9Z,12Z)-octadec-9,12-dienoate)] — lower, 122.5 nm
- CCCCCCCCCCCCCCOCCNCCOCCCCCCCCCCCCCC [Compound 69, bis(2-(Tetradecyloxy)ethyl)amine] — lower, 136.8 nm
- CCCCCCCC/C=C\CCCCCCCCOCCN(CCOCCCCCCCC/C=C\CCCCCCCC)C(=O)[C@@H](N)CCCCN [Compound 94, (S)-2,6-Diamino-N,N-bis(2-((Z)-octadec-9-enyloxy)ethyl)hexanamido] — lower, 137.3 nm
- CCCCCCCCCCCCCCOCCN(C)CCOCCCCCCCCCCCCCC [Compound 34, N-Methyl-N,N-bis(2-(tetradecyloxy)ethyl)amine] — higher, 165.7 nm
- CCCCCCCC/C=C\CCCCCCCCOCCN(CCOCCCCCCCC/C=C\CCCCCCCC)C(=O)CCCCCN [Compound 88, 6-Amino-N,N-bis(2-((Z)-octadec-9-enyloxy)ethyl)] — lower, 131.9 nm
- CCCCCC/C=C\CCCCCCCCOC[C@@H]1CNC[C@H]1COCCCCCCCC/C=C\CCCCCC (relative stereo) [Compound 44, trans-3,4-bis(((Z)-Hexadec-9-enyloxy)methyl)pyrrolidine] — lower, 143.5 nm
- CCCCC/C=C\C/C=C\CCCCCCCC(=O)O[C@@H]1CNC[C@H]1OC(=O)CCCCCCC/C=C\C/C=C\CCCCC [Compound 2, (3R,4R)-Pyrrolidine-3,4-diyl di((9Z,12Z)-octadec-9,12-dienoate)] — lower, 139.6 nm
- CCCCCCCC/C=C\CCCCCCCC(=O)OC[C@@H]1CNC[C@H]1COC(=O)CCCCCCC/C=C\CCCCCCCC (relative stereo) [Compound 104, trans-3,4-bis(((Z)-Octadec-9-enoyloxy)methyl)pyrrolidine] — lower, 141.5 nm
- CCCCC/C=C\C/C=C\CCCCCCCCO[C@@H]1CN(C(=O)CCN(C)C)C[C@H]1OCCCCCCCC/C=C\C/C=C\CCCCC [Compound 28, (3R,4R)-1-(3-(Dimethylamino)propanoyl)-3,4-bis((9Z,12Z)-octadec-9,12-dienyloxy)pyrrolidine] — lower, 132.2 nm
- CCCCC/C=C\C/C=C\CCCCCCCCO[C@H]1CN(C)C[C@@H]1OCCCCCCCC/C=C\C/C=C\CCCCC (stereo in doubt) [Compound 50, (3S,4S)-1-Methyl-3,4-bis((9Z,12Z)-octadec-9,12-dienyloxy)pyrrolidine] — lower, 129.2 nm
- CCCCCCCC/C=C\CCCCCCCCOCCN(CCOCCCCCCCC/C=C\CCCCCCCC)C(=O)CCN(C)C [Compound 90, 3-(Dimethylamino)-N,N-bis(2-((Z)-octadec-9-enyloxy)ethyl)propanamido] — lower, 120.8 nm
- CCCCCCCC/C=C\CCCCCCCCOC[C@@H]1CNC[C@H]1COCCCCCCCC/C=C\CCCCCCCC (relative stereo) [Compound 101, trans-3,4-bis(((Z)-Octadec-9-enyloxy)methyl)pyrrolidine] — the same, 148.7 nm
- CCCCC/C=C\C/C=C\CCCCCCCCCCOC[C@@H]1CNC[C@H]1COCCCCCCCCCC/C=C\C/C=C\CCCCC (relative stereo) [Compound 103, trans-3,4-bis(((11Z,14Z)-Icos-11,14-dienyloxy)methyl)pyrrolidine] — lower, 141.8 nm
- CCCCC/C=C\C/C=C\CCCCCCCCOC[C@@H]1CN(C)C[C@H]1COCCCCCCCC/C=C\C/C=C\CCCCC (relative stereo) [Compound 107, trans-1-Methyl-3,4-bis(((9Z,12Z)-octadec-9,12-dienyloxy)methyl)pyrrolidine] — lower, 139.1 nm
- CCCCC/C=C\C/C=C\CCCCCCCC(=O)OCCN(CCOC(=O)CCCCCCC/C=C\C/C=C\CCCCC)C(=O)[C@@H](N)CCCCN [Compound 100, (S)-2,6-Diamino-N,N-bis(2-((9Z,12Z)-octadec-9,12-dienoyloxy)ethyl)hexanamido] — lower, 135.1 nm
- CCCCC/C=C\C/C=C\CCCCCCCCO[C@H]1C[N+](C)(C)C[C@H]1OCCCCCCCC/C=C\C/C=C\CCCCC.[Cl-] [Compound 21, (3R,4,5)-1,1-Dimethyl-3,4-bis((9Z,12Z)-octadec-9,12-dienyloxy)pyrrolidinium chloride] — lower, 112.4 nm
- CCCCCCCC/C=C\CCCCCCCCOCCN(CCOCCCCCCCC/C=C\CCCCCCCC)CCC(N)=O [Compound 84, 3-(bis(2-((2)-Octadec-9-enyloxy)ethyl)amino)propanamide] — lower, 120.2 nm
- CCCCC/C=C\C/C=C\CCCCCCCC(=O)O[C@@H]1C[N+](C)(C)C[C@H]1OC(=O)CCCCCCC/C=C\C/C=C\CCCCC.[Cl-] [Compound 20, (3R,4R)-1,1-Dimethyl-3,4-bis((9Z,12Z)-octadec-9,12-dienoyloxy)pyrrolidinium chloride] — lower, 107.5 nm
- CCCC/C=C\CCCCCCCCOCCN(C)CCOCCCCCCCC/C=C\CCCC [Compound 75, N-Methyl-N,N-bis(2-((Z)-Tetradec-9-enyloxy)ethyl)amine] — lower, 124.0 nm
- CCCCCCCCCCCCCCCCOCCN(C)CCOCCCCCCCCCCCCCCCC [Compound 76, N,N-bis(2-(Hexadecyloxy)ethyl)-N-methylamine] — lower, 133.6 nm

Reference: patent US20170349532A1, “CATIONIC LIPID” (Kyowa Hakko Kirin Co., Ltd., priority 2011, published 2017)
